Patent publication US20250361546A1, “SCREENING METHODS FOR RNA-CONTROLLING COMPOUNDS” (Veritas In Silico Inc., priority 2018, published 2025)

Assays:
Assay type in all cases: binding
TAR21-G3_Texas Red/BHQ2 = experiment: FRET probe Tm measurement, single probe and 4-probe mixture (Example 5); details: 100 μM compound
Experimental: • FRET probe with Texas Red at the 5′ end and BHQ2 modification at the 3′ end
(§1) The final levels were 50 nM RNA, 20 mM phosphate buffer (pH 6 5), 50 mM KCl, 1% DMSO, 0.1 μg/μl Bovine Serum Albumin (Takara Bio) or 0.05%-0.1% Tween-20, or 0.05%-0.1% Triton X-100 per probe. In addition, 10 μl solutions were mixed to make 100 μM compound if small compounds were included and incubated at room temperature for 10 minutes.
(§2) The solutions were dispensed into a 384 well plate, and the plate was kept in a qPCR machine (manufactured by CFX 384 Touch (Bio-Rad Co., Ltd.) for 15 seconds after the temperature was raised to 95° C., which was rapidly cooled to 4° C. and kept for 2 minutes, and then kept at 25° C. for 5 minutes. Then, it was raised to over 95° C. about 40 minutes, and the fluorescence output was measured every 1° C. in 10 seconds. For numerical differentiation of the fluorescence output, a total of seven points from the measured temperature T to plus or minus 3° C. were approximated to a straight line by the least squares method, and the slope was defined as the slope (D1) at the point of the measured temperature T. Similarly, the value of D1 was again subjected to numerical differentiation in the same manner, and the slope (D2) at the point of the measured temperature T was obtained. Here, in parts where the D1 value was 10 or more, the measured temperature T_D1MAX was obtained with D1 at maximum. A total of seven points from this measured temperature T_D1MAX to plus and minus 3° C. were used to calculate the value of T_INF at Y=0 by setting X as T and Y as D2 when the seven points were actually approximated to the line by least squares, and this was set as the Tm value. In addition, the difference (Tm−Tm_NO) in the Tm value (Tm_NO) between wells containing the compound and wells without it was acquired as ΔTm.
(§3) This work was carried out for single-probe wells and four-probe wells, respectively, to obtain the Tm and ΔTm values shown in Table 6 below.

A-4-G_Cy5/BHQ2 = experiment: as above; details: 100 μM compound
Experimental: (§4) Four FRET probes with fluorescent modifications corresponding to four wavelengths detectable by a measuring device (CFX384 Touch manufactured by Bio-Rad) were prepared. • FRET probe with Cy5 at the 5′ end and BHQ2 modification at the 3′ end
as §1, §2, §3

FMNA_Alexa532/BHQ1 = experiment: as above; details: 100 μM compound
Experimental: • FRET probe with HEX-equivalent Alexa 532 at the 5′ end and BHQ1 modification at the 3′ end
as §1, §2, §3

[1] = system: A-4-G_Cy5/BHQ2, MGA-N_FAM/BHQ1, FMNA_Alexa532/BHQ1, TAR21-G3_Texas Red/BHQ2; experiment: FRET probe Tm measurement, summary over four probes (Example 5); details: both single probes and mixed probes; 100 μM compound
Experimental: as §4
The final levels were 50 nM RNA, 20 mM phosphate buffer (pH 6 5), 50 mM KCl, 1% DMSO, 0.1 μg/μl Bovine Serum Albumin (Takara Bio) or 0.05%-0.1% Tween-20, or 0.05%-0.1% Triton X-100 per probe. In addition, 10 μl solutions were mixed to make 100 μM compound if small compounds were included and incubated at room temperature for 10 minutes. […]

MGA-N_FAM/BHQ1 = experiment: FRET probe Tm measurement, single probe and 4-probe mixture (Example 5); details: 100 μM compound
Experimental: • FRET probe with FAM at the 5′ end and BHQ1 modification at the 3′ end
as §1, §2, §3

A-4-G_Cy5/BHQ2 probe = experiment: FRET probe Tm measurement with single compounds and compound mixture (Example 6); details: for ΔTm: 100 μM compound per compound, 50 nM RNA
Experimental: (§5) A-4-G_Cy5/BHQ2 probe and the Survivin-native+type probe modified with Cy5 at the 5′ end and BHQ2 at the 3′ end were prepared as shown in Examples 2 and 5.
(§6) The final levels were 50 nM RNA, 20 mM phosphate buffer (pH 6 5), 50 mM KCl, 1% DMSO, 0.1 μg/μl Bovine Serum Albumin (Takara Bio), or 0.05%-0.1% Tween-20, or 0.05%-0.1% Triton X-100. Further, if a low-molecular weight compound was included, 10 μl solutions were mixed to give 100 μM compound per compound and incubated at room temperature for 10 minutes.
as §2

[2] = system: Survivin-native+ type probe (Cy5/BHQ2); experiment: as above; details: for ΔTm: 100 μM compound per compound, 50 nM RNA
Experimental: as §5, §6, §2

[3] = 4-probe mixture, Texas Red detection, 50 nM RNA per probe
[4] = 4-probe mixture, Cy5 detection, 50 nM RNA per probe
[5] = 4-probe mixture, HEX detection, 50 nM RNA per probe
[6] = 4-probe mixture, FAM detection, 50 nM RNA per probe

O=C(O)c1cn(C2CC2)c2cc(N3CCNCC3)c(F)cc2c1=O [CPFX, ciprofloxacin]
Tm (° C.) with compound (TAR21-G3_Texas Red/BHQ2; [3]): 85.75 °C
ΔTm (° C.) (TAR21-G3_Texas Red/BHQ2; [3]): −0.02 °C
Tm (° C.) with compound (TAR21-G3_Texas Red/BHQ2; Single probe, 50 nM RNA): 85.80 °C
ΔTm (° C.) (TAR21-G3_Texas Red/BHQ2; Single probe, 50 nM RNA): 0.07 °C
Tm (° C.) with compound (A-4-G_Cy5/BHQ2; [4]): 68.96 °C
ΔTm (° C.) (A-4-G_Cy5/BHQ2; [4]): 1.46 °C
Tm (° C.) with compound (A-4-G_Cy5/BHQ2; Single probe, 50 nM RNA): 68.78 °C
ΔTm (° C.) (A-4-G_Cy5/BHQ2; Single probe, 50 nM RNA): 1.41 °C
Tm (° C.) with compound (FMNA_Alexa532/BHQ1; [5]): 78.07 °C
ΔTm (° C.) (FMNA_Alexa532/BHQ1; [5]): −0.02 °C
Tm (° C.) with compound (FMNA_Alexa532/BHQ1; Single probe, 50 nM RNA): 78.03 °C
ΔTm (° C.) (FMNA_Alexa532/BHQ1; Single probe, 50 nM RNA): 0.09 °C
Tm increase (in words) [1]: Tm increase was obtained only at wavelengths corresponding to A-4-G_Cy5/BHQ2
Tm (° C.) with compound (MGA-N_FAM/BHQ1; [6]): 74.22 °C
ΔTm (° C.) (MGA-N_FAM/BHQ1; [6]): 0.11 °C
Tm (° C.) with compound (MGA-N_FAM/BHQ1; Single probe, 50 nM RNA): 74.03 °C
ΔTm (° C.) (MGA-N_FAM/BHQ1; Single probe, 50 nM RNA): 0.33 °C

CC1CCc2c(N3CCC(O)CC3)c(F)cc3c(=O)c(C(=O)O)cn1c23 (centres unmarked) [NDFX, nadifloxacin]
change of Tm value (in words) (A-4-G_Cy5/BHQ2 probe): does not cause changes in the Tm value
ΔTm (A-4-G_Cy5/BHQ2 probe; Table 7, A-4-G): 0.15
ΔTm (A-4-G_Cy5/BHQ2 probe; rounded): 0.2 °C
change of Tm value (in words) [2]: does not cause changes in the Tm value
ΔTm ([2]; Table 7, SV-NL): 0.01
ΔTm ([2]; rounded): 0.0 °C
